Test results from patent US20260174875A1 (Novo Nordisk A/S, priority 2023, published 2026).
Where two headings read alike, the source gives them in different places.

Experiments:
Assay type in all cases: cell-based
[1] = target: T1, human GIP receptor (hGIPR) (Homo sapiens, UniProt P48546); assay: GIP receptor assay, method B (CRE-luciferase reporter, BHK cells, 384-well)
T1 construct: expressed in transfected cells
T1 sequence (P48546 22-466): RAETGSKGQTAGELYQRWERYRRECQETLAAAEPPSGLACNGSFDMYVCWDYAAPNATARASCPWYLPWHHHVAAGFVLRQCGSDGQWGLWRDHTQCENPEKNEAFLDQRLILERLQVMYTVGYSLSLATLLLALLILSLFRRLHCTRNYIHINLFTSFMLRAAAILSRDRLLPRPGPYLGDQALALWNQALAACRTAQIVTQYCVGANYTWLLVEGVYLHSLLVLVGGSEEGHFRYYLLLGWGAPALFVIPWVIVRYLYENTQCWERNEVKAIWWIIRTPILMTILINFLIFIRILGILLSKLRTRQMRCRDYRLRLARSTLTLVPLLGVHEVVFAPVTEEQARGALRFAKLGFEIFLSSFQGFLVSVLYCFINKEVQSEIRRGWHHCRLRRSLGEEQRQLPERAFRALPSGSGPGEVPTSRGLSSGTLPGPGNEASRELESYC

[2] = target: T2, human amylin receptor (hAMYR3) (Homo sapiens, UniProt O60896+P30988); assay: Amylin receptor assay, method B (CRE-luciferase reporter, BHK cells)
T2 construct: host or cells: BHK cells (Hollex-1 line expressing hCTR(a) and CRE-Luc), further transfected with human RAMP3
T2 sequence (P30988 25-474): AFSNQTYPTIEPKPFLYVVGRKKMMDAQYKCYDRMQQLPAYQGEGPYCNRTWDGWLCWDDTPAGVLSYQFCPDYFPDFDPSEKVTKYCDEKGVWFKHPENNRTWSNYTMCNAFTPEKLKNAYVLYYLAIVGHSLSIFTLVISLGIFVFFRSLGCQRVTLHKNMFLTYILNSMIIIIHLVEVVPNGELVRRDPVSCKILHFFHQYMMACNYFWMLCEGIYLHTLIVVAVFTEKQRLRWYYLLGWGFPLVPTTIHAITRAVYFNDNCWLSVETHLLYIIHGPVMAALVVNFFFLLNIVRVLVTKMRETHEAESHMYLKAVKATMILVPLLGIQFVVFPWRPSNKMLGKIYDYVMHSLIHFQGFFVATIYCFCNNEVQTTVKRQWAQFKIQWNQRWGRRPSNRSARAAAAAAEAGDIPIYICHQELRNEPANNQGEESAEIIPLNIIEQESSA
T2 sequence (O60896 24-148): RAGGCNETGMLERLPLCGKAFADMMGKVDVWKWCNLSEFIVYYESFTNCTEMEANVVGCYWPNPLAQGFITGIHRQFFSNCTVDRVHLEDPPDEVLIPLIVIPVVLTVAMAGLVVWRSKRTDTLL
Description: To assess how the activation of the receptors is potentially influenced by the presence of human serum albumin (HSA), the in vitro assays were performed in the absence of HSA and presence of 1% (w/v) HSA.
It is thus possible to measure hAMYR3 activity using a CRE-luciferase reporter gene introduced into Baby Hamster Kidney (BHK) cells co-expressing the hAMYR3.
The cell line was further transfected with human receptor modifying protein 3 (RAMP3) using standard methods.
After centrifugation, the cell pellet was resuspended and diluted to approximately 2.5-4.0×10^6 (2.5E+6 to 4.0E+6) cells/mL in Recovery™ Cell Culture Freezing Medium (Gibco, 12648-010). Cells were aliquoted and stored at −180° C. until use.
The assay buffer consisted of DMEM without phenol red (Gibco, 11880-028) supplemented with 1× GlutaMAX (Gibco, 35050-038), 10 mM HEPES (Gibco, 15630-056) and 1% (w/v) ovalbumin (Sigma, A5503) either with or without 0.1% (v/v) Pluronic F-68 (Gibco, 24040-032) and either with or without HSA (Sigma, A9511).
To perform the assay, hAMYR3 BHK Cre-Luc cells were thawed, washed once in PBS (Gibco 14190-094) and seeded in 40 μL growth medium in a white 384-well culture plate (PerkinElmer/Revvity, 6007688) at a cell density of 4.0×10^3 (4.0E+3) cells/well the day before the experiment. The plate was incubated over night at 37° C. in 5% CO2. […] Serial dilutions were then mixed in a new 96-well plate with equal volume (1:1:1 ratio) of assay buffer and either assay buffer without or with 3% HSA (Sigma, A-9511). Twenty microliters of the solution mix were transferred to the cells which previously were washed once with PBS (Gibco 14190-094). After a short centrifugation, the assay plates were incubated for 3 hours at 37° C. in 5% CO2 and let to equilibrated at room temperature for 10 minutes before the addition of 30 μL steadylite Plus™ PerkinElmer/Revvity, 6066759) per well. Plates were sealed and incubated at room temperature with gentle shaking for 30 minutes while protected from light. Luminescence was detected on a luminescence plate reader e.g., a Synergy 2 (BioTek).

[3] = target: T3, human GLP-1 receptor (hGLP-1R) (Homo sapiens, UniProt P43220); assay: GLP-1 receptor assay, method B (CRE-luciferase reporter, BHK cells, 384-well)
T3 construct: expressed in transfected cells
T3 sequence (P43220 24-463): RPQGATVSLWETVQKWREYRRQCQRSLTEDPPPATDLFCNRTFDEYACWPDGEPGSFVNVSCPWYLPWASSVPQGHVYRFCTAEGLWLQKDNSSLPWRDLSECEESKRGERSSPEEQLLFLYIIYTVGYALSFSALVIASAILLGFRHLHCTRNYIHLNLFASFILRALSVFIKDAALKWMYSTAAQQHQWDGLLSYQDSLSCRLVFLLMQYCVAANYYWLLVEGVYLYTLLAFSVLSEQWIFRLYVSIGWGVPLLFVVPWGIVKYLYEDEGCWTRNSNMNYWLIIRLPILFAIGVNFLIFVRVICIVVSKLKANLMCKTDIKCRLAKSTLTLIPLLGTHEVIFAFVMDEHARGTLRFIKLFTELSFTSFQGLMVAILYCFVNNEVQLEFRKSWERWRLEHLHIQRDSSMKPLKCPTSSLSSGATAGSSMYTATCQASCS

[4] = hGIPR Potency, 1% HSA, EC50, methods B, in the presence of 1% HSA
[5] = method B, absence of HSA, read-out: hGIPR Potency, no HSA, EC50
[6] = hAMYR3 Potency, 1% HSA, EC50, methods B, in the presence of 1% HSA
[7] = method B, absence of HSA, read-out: hAMYR3 Potency, no HSA, EC50
[8] = hGLP-1R Potency, 1% HSA, EC50, methods B, in the presence of 1% HSA
[9] = method B, absence of HSA, read-out: hGLP-1R Potency, no HSA, EC50

| EC50 [1, 4] | EC50 [1, 5] | EC50 [2, 6] | EC50 [2, 7] | EC50 [3, 8] | EC50 [3, 9] | SMILES |
| --- | --- | --- | --- | --- | --- | --- |
| 25.5 pM | 4.36 pM | 1.35 nM | 0.01 nM | 0.17 nM | 0.0233 nM | CC[C@H](C)[C@H](NC(=O)[C@H](CCC(=O)O)NC(=O)[C@H](CCC(=O)O)NC(=O)[C@H](CC(C)C)NC(=O)[C@H](CC(C)C)NC(=O)[C@@H](NC(=O)[C@H](CO)NC(=O)[C@H](Cc1ccc(O)cc1)NC(=O)[C@H](CC(=O)O)NC(=O)[C@H](CO)NC(=O)[C@@H](NC(=O)[C@H](Cc1ccccc1)NC(=O)[C@@H](NC(=O)CNC(=O)[C@H](CCC(=O)O)NC(=O)C(C)(C)NC(=O)[C@@H](N)Cc1ccc(O)cc1)[C@@H](C)O)[C@@H](C)O)[C@@H](C)CC)C(=O)N[C@@H](C)C(=O)N[C@@H](C)C(=O)N[C@@H](CCCNC(=N)N)C(=O)N[C@@H](CCC(=O)O)C(=O)N[C@@H](Cc1ccccc1)C(=O)N[C@H](C(=O)N[C@@H](CCC(=O)O)C(=O)N[C@@H](Cc1c[nH]c2ccccc12)C(=O)N[C@@H](CC(C)C)C(=O)N[C@@H](CC(C)C)C(=O)N[C@@H](C)C(=O)NCC(=O)NCC(=O)N1CCC[C@H]1C(=O)N[C@@H](CO)C(=O)N[C@@H](CO)C(=O)NCC(=O)N[C@@H](C)C(=O)NCC(=O)N[C@@H](C)C(=O)N[C@@H](CO)C(=O)N[C@@H](Cc1c[nH]cn1)C(=O)N[C@@H](CC(C)C)C(=O)N[C@@H](CO)C(=O)N[C@H](C(=O)N[C@@H](C)C(=O)N[C@@H](CCC(N)=O)C(=O)N[C@H](C(=O)N[C@@H](CCC(N)=O)C(=O)N[C@@H](CCCNC(=N)N)C(=O)N[C@@H](CC(C)C)C(=O)N[C@@H](CO)C(=O)N[C@@H](C)C(=O)N[C@@H](CCC(=O)O)C(=O)N[C@@H](CC(C)C)C(=O)N[C@@H](Cc1c[nH]cn1)C(=O)N[C@@H](CCCCNC(=O)COCCOCCNC(=O)COCCOCCNC(=O)CC[C@H](NC(=O)CCCCCCCCCCCCCCCCCCC(=O)O)C(=O)O)C(=O)N[C@@H](CC(C)C)C(=O)N[C@@H](C)C(=O)N[C@H](C(=O)N[C@@H](CCC(=O)O)C(=O)N1CCC[C@H]1C(=O)N[C@@H](CCCNC(=N)N)C(=O)N[C@H](C(=O)N[C@@H](CCC(=O)O)C(=O)N[C@H](C(=O)NCC(=O)N[C@@H](CO)C(=O)NCC(=O)N[C@@H](CO)C(=O)N1CCC[C@H]1C(N)=O)[C@@H](C)O)[C@@H](C)O)[C@@H](C)O)[C@@H](C)O)[C@@H](C)O)[C@@H](C)CC [Compound 179] |
|  | 3.25 pM |  | 0.00846 nM |  | 0.0288 nM | CC[C@H](C)[C@H](NC(=O)[C@H](CCC(=O)O)NC(=O)[C@H](CCC(=O)O)NC(=O)[C@H](CC(C)C)NC(=O)[C@H](CC(C)C)NC(=O)[C@@H](NC(=O)[C@H](CO)NC(=O)[C@H](Cc1ccc(O)cc1)NC(=O)[C@H](CC(=O)O)NC(=O)[C@H](CO)NC(=O)[C@@H](NC(=O)[C@H](Cc1ccccc1)NC(=O)[C@@H](NC(=O)CNC(=O)[C@H](CCC(=O)O)NC(=O)C(C)(C)NC(=O)[C@@H](N)Cc1ccc(O)cc1)[C@@H](C)O)[C@@H](C)O)[C@@H](C)CC)C(=O)N[C@@H](C)C(=O)N[C@@H](C)C(=O)N[C@@H](CCCNC(=N)N)C(=O)N[C@@H](CCC(=O)O)C(=O)N[C@@H](Cc1ccccc1)C(=O)N[C@H](C(=O)N[C@@H](CCC(=O)O)C(=O)N[C@@H](Cc1c[nH]c2ccccc12)C(=O)N[C@@H](CC(C)C)C(=O)N[C@@H](CC(C)C)C(=O)N[C@@H](C)C(=O)NCC(=O)NCC(=O)N1CCC[C@H]1C(=O)N[C@@H](CO)C(=O)N[C@@H](CO)C(=O)N[C@@H](CCC(=O)O)C(=O)N[C@@H](C)C(=O)NCC(=O)N[C@@H](C)C(=O)N[C@@H](CO)C(=O)N[C@@H](CCC(N)=O)C(=O)N[C@@H](CC(C)C)C(=O)N[C@@H](CO)C(=O)N[C@H](C(=O)N[C@@H](C)C(=O)N[C@@H](CCC(N)=O)C(=O)N[C@H](C(=O)N[C@@H](CCC(N)=O)C(=O)N[C@@H](CCCNC(=N)N)C(=O)N[C@@H](CC(C)C)C(=O)N[C@@H](CO)C(=O)N[C@@H](C)C(=O)N[C@@H](CCC(=O)O)C(=O)N[C@@H](CC(C)C)C(=O)N[C@@H](Cc1c[nH]cn1)C(=O)N[C@@H](CCCCNC(=O)COCCOCCNC(=O)COCCOCCNC(=O)CC[C@H](NC(=O)CCCCCCCCCCCCCCCCCCC(=O)O)C(=O)O)C(=O)N[C@@H](CC(C)C)C(=O)N[C@@H](C)C(=O)N[C@H](C(=O)N[C@@H](CC(C)C)C(=O)N1CCC[C@H]1C(=O)N[C@@H](CCCNC(=N)N)C(=O)N[C@H](C(=O)N[C@@H](CCC(=O)O)C(=O)N[C@H](C(=O)NCC(=O)N[C@@H](CO)C(=O)NCC(=O)N[C@@H](CO)C(=O)N1CCC[C@H]1C(N)=O)[C@@H](C)O)[C@@H](C)O)[C@@H](C)O)[C@@H](C)O)[C@@H](C)O)[C@@H](C)CC [Compound 181] |
| 11.4 pM | 3.83 pM | 0.914 nM | 0.0085 nM | 0.0674 nM | 0.0224 nM | CC[C@H](C)[C@H](NC(=O)[C@H](CCC(=O)O)NC(=O)[C@H](CCC(=O)O)NC(=O)[C@H](CC(C)C)NC(=O)[C@H](CC(C)C)NC(=O)[C@@H](NC(=O)[C@H](CO)NC(=O)[C@H](Cc1ccc(O)cc1)NC(=O)[C@H](CC(=O)O)NC(=O)[C@H](CO)NC(=O)[C@@H](NC(=O)[C@H](Cc1ccccc1)NC(=O)[C@@H](NC(=O)CNC(=O)[C@H](CCC(=O)O)NC(=O)C(C)(C)NC(=O)[C@@H](N)Cc1ccc(O)cc1)[C@@H](C)O)[C@@H](C)O)[C@@H](C)CC)C(=O)N[C@@H](C)C(=O)N[C@@H](C)C(=O)N[C@@H](CCCNC(=N)N)C(=O)N[C@@H](CCC(=O)O)C(=O)N[C@@H](Cc1ccccc1)C(=O)N[C@H](C(=O)N[C@@H](CCC(=O)O)C(=O)N[C@@H](Cc1c[nH]c2ccccc12)C(=O)N[C@@H](CC(C)C)C(=O)N[C@@H](CC(C)C)C(=O)N[C@@H](C)C(=O)NCC(=O)NCC(=O)N1CCC[C@H]1C(=O)N[C@@H](CO)C(=O)N[C@@H](CO)C(=O)NCC(=O)N[C@@H](C)C(=O)NCC(=O)N[C@@H](CCC(N)=O)C(=O)N[C@@H](C)C(=O)N1CCC[C@H]1C(=O)NCC(=O)N[C@@H](CCC(=O)O)C(=O)N[C@@H](C)C(=O)N1CCC[C@H]1C(=O)NCC(=O)N[C@@H](C)C(=O)N[C@@H](CO)C(=O)N[C@@H](Cc1c[nH]cn1)C(=O)N[C@@H](CC(C)C)C(=O)N[C@@H](CO)C(=O)N[C@H](C(=O)N[C@@H](C)C(=O)N[C@@H](CCC(N)=O)C(=O)N[C@H](C(=O)N[C@@H](CCC(N)=O)C(=O)N[C@@H](CCCNC(=N)N)C(=O)N[C@@H](CC(C)C)C(=O)N[C@@H](CO)C(=O)N[C@@H](C)C(=O)N[C@@H](CCC(=O)O)C(=O)N[C@@H](CC(C)C)C(=O)N[C@@H](Cc1c[nH]cn1)C(=O)N[C@@H](CCCCNC(=O)COCCOCCNC(=O)COCCOCCNC(=O)CC[C@H](NC(=O)CCCCCCCCCCCCCCCCCCC(=O)O)C(=O)O)C(=O)N[C@@H](CC(C)C)C(=O)N[C@@H](C)C(=O)N[C@H](C(=O)N[C@@H](CC(C)C)C(=O)N1CCC[C@H]1C(=O)N[C@@H](CCCNC(=N)N)C(=O)N[C@H](C(=O)N[C@@H](CCC(=O)O)C(=O)N[C@H](C(=O)NCC(=O)N[C@@H](CO)C(=O)NCC(=O)N[C@@H](CO)C(=O)N1CCC[C@H]1C(N)=O)[C@@H](C)O)[C@@H](C)O)[C@@H](C)O)[C@@H](C)O)[C@@H](C)O)[C@@H](C)CC [Compound 152] |
